Results on 16 molecules are retold here after patent US20060063938A1, “Compounds to treat hiv infection and aids” (priority 2001, published 2006).

Several values for one entry are separate records, joined by “and”; a condition that tells them apart may be missing. Equal values may be shown once. Entries after “also recorded” stand apart in the source; their conditions may differ. Read-outs that look alike come from different tables or passages of the source.

For data set [1], the target named is HIV-1 integrase (Human immunodeficiency virus type 1 group M subtype B, UniProt P04585). Briefly: In vitro HIV-1 integrase assay (3′-processing and strand transfer) with 21-mer U5 LTR oligonucleotide. Format: biochemical.
For data set [2], the system named is HIV-1. The data set is described as follows: microbe, parasite or virus in culture. It counts as cell-based. Conditions: for IC50: read-out: 50% Inhibitory Conc. (IC50).
Data set [3] concerns HIV-1. The settings on record: read-out: IC50 reported previously; Hazuda et al. 2000; cited from earlier work.
Data set [4] relates to replication competent HIV-1. Briefly: Inhibition of replication competent HIV-1 in H9 cells, p24 antigen ELISA. Conditions: 25 μM B compound, 15 days. It counts as cell-based. As to the method:
FIG. 6. Determination of inhibition of replication competent HIV-1 by B compound. HIV-1 infection was carried out in the presence of 25 μM B compound, 100 nM AZT, or in the absence of any drugs. Uninfected H9 culture was used as a negative control. […] Each time point of each culture was evaluated in duplicate.
Inhibition of replication competent HIV-1 by B compound was evaluated at 25 μM concentration. 293T cells were transfected with pNL4-3, a plasmid that encodes full HIV-1 genome. Virus harvested from the transfected cells was used to infect H9 target cells. […] In addition, H9 infected cells were cultured in the presence of 100 nM AZT as a control.
H9 T-lymphoid cells (ATCC) were maintained in the presence of RPMI 1640 Medium (Cellgro), 20% fetal calf serum (HyClone Laboratories), penicillin (50 U/ml; Gibco) and streptomycin (50 μg/ml; Gibco), 2 μg/ml Polybrene (Sigma). […] After 4 hours of infection, H9 cells were washed, resuspended in 2 ml of cell culture medium containing an appropriate drug and maintained in 35-mm-diameter dish. Cultures were fed every 3 days by removing 1 ml of cell culture suspension and replacing with equivalent amount of fresh medium containing an appropriate drug.
For orientation: An ELISA detects its analyte on a solid surface through an enzyme-linked reagent.

Data set [5] relates to 293T cells. The data set is described as follows: Cell proliferation inhibition (XTT) cell toxicity assay. Format: cell-based. As to the method: To ensure that inhibition of luciferase activity in the presence of the compounds was indeed due to inhibition of HIV-1 infection and not due to the toxicity of these compounds to the target cells, we performed a cell toxicity assay in the presence of the same concentrations of compounds that were used for IC50 determination (FIG. 5).
Cell proliferation inhibition assay. The effects of inhibitors on cell toxicity were determined by using Cell Proliferation Kit II (XTT) (Roche Molecular Biochemicals). Target cells (293T) were plated at a density of 1×10^3 per well of 96-well plate. Twenty-four hours later cells were treated with an inhibitor for 36 hours. After inhibitor was removed, cells were incubated for additional 48 hours and then were stained with 50 μL of the XTT labeling mix per well (Roche Molecular Biochemicals). Spectrophotometrical absorbance of the samples was measured 4 hours after addition of the labeling mix at wavelengths of 450 nm with a reference point at 700 nm in a 96-well plate reader.
For orientation: Formazan colour is commonly taken as a measure of viable cells.

[6] abbreviates: 3′-processing step of integration reaction, read-out: IC50 3′-Processing.
Setting [7] is: strand transfer step of integration reaction, read-out: IC50 Strand transfer.
The mark [8] stands for this setting: Human immunodeficiency virus 1, HEK-293T.

Consider `O=C(C=Cc1ccc(O)c(O)c1)Nc1cccc(C(=O)C=C(O)C(=O)O)c1` [Compound G], for which the IC50 in data set [1] (setting [6]) is 9 µM; in data set [1] (setting [7]) it was 4.7 µM; in data set [2], 2.2 µM. Moreover, in data set [2], the “Luciferase Activity Relative to No Drug Control (Avg ± S.E.)” value is reported as 24 ± 8%.
In the case of `O=C(O)C(O)=CC(=O)c1ccc(Oc2ccccc2)cc1` [Compound F], the IC50 in data set [1] (setting [6]) is above 100 µM; in data set [1] (strand transfer step of integration reaction, listed as 16, read-out: IC50 Strand transfer), 7.8 µM and 15 µM. Moreover, the “Luciferase Activity Relative to No Drug Control (Avg ± S.E.)” value in data set [2] is on record as 261 ± 5%.
Regarding `COc1ccc(Cn2nnnc2C(O)=CC(=O)c2c[nH]c3ccc(Cl)cc23)cc1` [Compound P20, reference compound], the half-maximal inhibitory concentration (IC50) was 7.2 µM and 7.5 µM in data set [1] (3′-processing step of integration reaction, listed as 10, read-out: IC50 3′-Processing); 1.28 ± 0.38 µM in data set [1] (setting [7]). The “Luciferase Activity Relative to No Drug Control (Avg ± S.E.)” value in data set [2] turned out to be 133 ± 35%.
Consider `O=C(O)C(O)=CC(=O)c1cccc(OCc2ccccc2)c1` [Compound H], for which the concentration for half-maximal inhibition (IC50) in data set [1] (3′-processing step of integration reaction, listed as 18, read-out: IC50 3′-Processing) was 65 µM and 100 µM; in data set [1] (setting [7]), 0.35 ± 0.13 µM; in data set [2], 0.6 µM. Also, in data set [2], the “Luciferase Activity Relative to No Drug Control (Avg ± S.E.)” value is recorded as 14 ± 3%.
In the case of `O=C(C=C(O)c1nnn[nH]1)c1c[nH]c2ccccc12` [Compound P4, reference compound], the IC50 is above 100 µM in data set [1] (setting [6]); 1.9 µM and 2 µM in data set [1] (strand transfer step of integration reaction, listed as 6, read-out: IC50 Strand transfer). In addition, the “Luciferase Activity Relative to No Drug Control (Avg ± S.E.)” value in data set [2] worked out at 116 ± 27%.
In the case of `Cc1cc(C)cc(C(=O)C=C(O)C(=O)O)c1` [Compound E], the IC50 in data set [1] (setting [6]) was above 100 µM; in data set [1] (strand transfer step of integration reaction, listed as 15, read-out: IC50 Strand transfer), 9 µM and 11 µM. Further, in data set [2], the “Luciferase Activity Relative to No Drug Control (Avg ± S.E.)” value turned out to be 99 ± 14%. The “antiviral activity in single cycle assay” value in data set [2] was “did not show antiviral activity; also recorded: showed no antiviral activity”.
Turning to `[N-]=[N+]=NCc1cc(CN=[N+]=[N-])cc(C(=O)/C=C(\O)C(=O)O)c1` [Compound A, 4-(3,5-bis-azidomethyl-phenyl)-2-hydroxy-4-oxo-but-2-enoic acid], the IC50 in data set [1] (setting [6]) is above 100 µM; in data set [1] (setting [7]), 2 µM and 2.8 µM; in data set [2] (setting [8]) it was 1.6 µM. Besides, the “Luciferase Activity Relative to No Drug Control (Avg ± S.E.)” value in data set [2] worked out at 5 ± 6%.
With `COc1ccc(Cn2nnnc2C(O)=CC(=O)c2c[nH]c3ccccc23)cc1` [Compound P23, reference compound], the results for the IC50 in data set [1] (setting [6]) and in data set [1] (setting [7]) were above 100 µM and 6.9 µM, respectively. The “Luciferase Activity Relative to No Drug Control (Avg ± S.E.)” value in data set [2] is on record as 104 ± 25%.
Consider `[N-]=[N+]=NCc1ccc(C(=O)C=C(O)C(=O)O)cc1CN=[N+]=[N-]` [Compound C], for which the concentration for half-maximal inhibition (IC50) in data set [1] (setting [6]) was above 100 µM; in data set [1] (strand transfer step of integration reaction, listed as 4, read-out: IC50 Strand transfer) it was 0.26 µM and 0.15 µM; in data set [2], 19 µM. The “Luciferase Activity Relative to No Drug Control (Avg ± S.E.)” value in data set [2] is recorded as 36 ± 7%.
For `O=C(O)C(O)=CC(=O)c1cc(OCc2ccccc2)cc(OCc2ccccc2)c1` [Compound P10, reference compound], the IC50 was above 1000 µM in data set [1] (setting [6]), 1.03 ± 0.25 µM in data set [1] (setting [7]), 2.3 µM in data set [2] and 2.5 µM in data set [3]. Moreover, the “effect on 3′-processing step” value in data set [1] (concentrations up to the millimolar range) is “unaffected”. Moreover, the “IC50 for the strand transfer reaction” value in data set [1] (strand transfer) is listed as “in the micromolar range”. For the same molecule, the “Luciferase Activity Relative to No Drug Control (Avg ± S.E.)” value in data set [2] was 7% and 7 ± 2%.
Take `O=C(C=C(O)c1nnn[nH]1)c1c[nH]c2ccc(F)cc12` [Compound P31, reference compound]: the IC50 in data set [1] (3′-processing step of integration reaction, listed as 14, read-out: IC50 3′-Processing) turned out to be 82 µM; in data set [1] (strand transfer step of integration reaction, listed as 14, read-out: IC50 Strand transfer) it was 6.56 ± 0.81 µM. For the same molecule, the “Luciferase Activity Relative to No Drug Control (Avg ± S.E.)” value in data set [2] is listed as 61 ± 17%.
On to `O=C(C=C(O)c1nnn[nH]1)c1c[nH]c2ccc(F)cc12` [Compound P18, reference compound], for which the IC50 in data set [1] (3′-processing step of integration reaction, listed as 9, read-out: IC50 3′-Processing) stood at 79 µM; in data set [1] (strand transfer step of integration reaction, listed as 9, read-out: IC50 Strand transfer) it was 1.8 µM. In addition, the “Luciferase Activity Relative to No Drug Control (Avg ± S.E.)” value in data set [2] is on record as 59 ± 13%.
Take `O=C(O)C(O)=CC(=O)c1cccc(C(=O)c2ccccc2)c1` [Compound I]: the IC50 was above 100 µM in data set [1] (setting [6]); 2.7 µM and 2.1 µM in data set [1] (strand transfer step of integration reaction, listed as 19, read-out: IC50 Strand transfer). Besides, the “Luciferase Activity Relative to No Drug Control (Avg ± S.E.)” value in data set [2] was determined as 19 ± 2%.
On to `[N-]=[N+]=NCc1cccc(C(=O)C=C(O)C(=O)O)c1` [Compound B, 4-(3-azidomethyl-phenyl)-2-hydroxy-4-oxo-but-2-enoic acid], for which the “HIV-1 replication (p24 antigen) in infected H9 culture” value in data set [4] is given as “no significant amounts of HIV-1 replication was detected; also recorded: strongly inhibited replication competent HIV-1”. In addition, the 50% inhibitory concentration (IC50) is above 100 µM in data set [1] (setting [6]), 1.53 ± 0.27 µM in data set [1] (setting [7]) and 0.5 µM in data set [2] (setting [8]). In addition, in data set [2], the “Luciferase Activity Relative to No Drug Control (Avg ± S.E.)” value turned out to be 15 ± 7%.
For `COc1ccc(Cn2nnnc2C(O)=CC(=O)c2c[nH]c3ccc(F)cc23)cc1` [Compound P22, reference compound], the concentration for half-maximal inhibition (IC50) in data set [1] (3′-processing step of integration reaction, listed as 11, read-out: IC50 3′-Processing) was 8.1 µM and 5.5 µM; in data set [1] (strand transfer step of integration reaction, listed as 11, read-out: IC50 Strand transfer) it was 2.2 µM and 1.6 µM. In addition, in data set [2], the “Luciferase Activity Relative to No Drug Control (Avg ± S.E.)” value is 98 ± 28%.
For `[N-]=[N+]=Nc1cccc(C(=O)C=C(O)C(=O)O)c1` [Compound D, 4-(3-azido-phenyl)-2-hydroxy-4-oxo-but-2-enoic acid], the IC50 in data set [1] (setting [6]) is above 100 µM; in data set [1] (setting [7]) it was 5.3 µM and 5.2 µM. In data set [2], the “Luciferase Activity Relative to No Drug Control (Avg ± S.E.)” value is on record as 137 ± 12%. In addition, the “concentration giving 50% inhibition of cell proliferation” value in data set [5] is “approximately 19 μM”.

A word on the IC50: it is the concentration that gives 50% inhibition.
